# Assay results taken from PMC6001238, “Iterative Chemical Engineering of Vancomycin Leads to Novel Vancomycin Analogs With a High in Vitro Therapeutic Index” (Frontiers in Microbiology, 2018).
# Legend:
# E. faecalis VRE 6 = assay: MIC, broth microdilution, vancomycin-resistant E. faecalis VRE 6 (VanA); format: cell-based, Enterococcus faecalis; conditions: for MIC: Enterococcus faecalis VRE 6 (vancomycin-resistant), read-out: MIC; for MIC-fold improvement vs. vancomycin: VRE 6, ratio of MIC of vancomycin and MIC of analogue
# Procedure: (§1) The minimum inhibitory concentration (MIC) was determined using the broth microdilution method according to the antimicrobial susceptibility testing standards of the clinical and laboratory standards institute ([Clinical and Laboratory Standards Institute [CLSI], 2012]). Ultrapure water and non-inoculated broth were used as controls. In one case, a final concentration of 10 μM vancomycin was included with the vancomycin analog or control antibiotic.
# MRSA KS6 = assay: MIC, broth microdilution, MRSA KS6; format: cell-based, Staphylococcus aureus; conditions: for MIC-fold improvement vs. vancomycin: MRSA KS6, ratio of MIC of vancomycin and MIC of analogue; for MIC: Staphylococcus aureus MRSA KS6, read-out: MIC
# Procedure: as §1
# S. aureus VRSA = assay: MIC, broth microdilution, vancomycin-resistant S. aureus (VRSA); format: cell-based, Staphylococcus aureus; conditions: for MIC: Staphylococcus aureus VRSA, read-out: MIC; for MIC-fold improvement vs. vancomycin: VRSA, ratio of MIC of vancomycin and MIC of analogue
# Procedure: as §1
# E. faecalis VRE 53 = assay: MIC, broth microdilution, vancomycin-resistant E. faecalis VRE 53 (VanA); format: cell-based, Enterococcus faecalis; conditions: for MIC: Enterococcus faecalis VRE 53 (vancomycin-resistant), read-out: MIC; for MIC-fold improvement vs. vancomycin: VRE 53, ratio of MIC of vancomycin and MIC of analogue
# Procedure: as §1
# E. faecalis VSE 1 = assay: MIC, broth microdilution, vancomycin-sensitive E. faecalis (VSE 1); format: cell-based, Enterococcus faecalis; conditions: for MIC: Enterococcus faecalis VSE 1 (vancomycin-sensitive), read-out: MIC; for MIC-fold improvement vs. vancomycin: VSE 1, ratio of MIC of vancomycin and MIC of analogue
# Procedure: as §1
# MRSA KS89 = assay: MIC, broth microdilution, MRSA KS89; format: cell-based, Staphylococcus aureus; conditions: for MIC-fold improvement vs. vancomycin: MRSA KS8, ratio of MIC of vancomycin and MIC of analogue; for MIC: Staphylococcus aureus MRSA KS8, read-out: MIC
# Procedure: as §1
# E. faecalis VRE 29 = assay: MIC, broth microdilution, vancomycin-resistant E. faecalis VRE 29 (VanA); format: cell-based, Enterococcus faecalis; conditions: for MIC: Enterococcus faecalis VRE 29 (vancomycin-resistant), read-out: MIC; for MIC-fold improvement vs. vancomycin: VRE 29, ratio of MIC of vancomycin and MIC of analogue
# Procedure: as §1
# [1] = test system: S. aureus VSSA (ATCC 6538); assay: MIC, broth microdilution, vancomycin-sensitive S. aureus (VSSA/MSSA, ATCC 6538); format: cell-based, Staphylococcus aureus; conditions: for MIC: Staphylococcus aureus VSSA, read-out: MIC; for MIC-fold improvement vs. vancomycin: VSSA, ratio of MIC of vancomycin and MIC of analogue
# Procedure: as §1
# E. faecalis VRE 37 = assay: MIC, broth microdilution, vancomycin-resistant E. faecalis VRE 37 (VanA); format: cell-based, Enterococcus faecalis; conditions: for MIC: Enterococcus faecalis VRE 37 (vancomycin-resistant), read-out: MIC
# Procedure: as §1
# [2] = test system: human cervix carcinoma (HeLa) cells; assay: Cytostatic activity, HeLa cell proliferation; format: cell-based; conditions: mean ± SD of three experiments; highest concentration tested 250 µM; 4 days; read-out: Toxicity (IC50) HeLa
# Procedure: (§2) Murine leukemia (L1210), human T-lymphocyte (CEM) and the human cervix carcinoma (HeLa) cell line were suspended at 300,000–500,000 cells/mL of culture medium, and 100 μL of a cell suspension was added to 100 μL of an appropriate dilution of the test compounds in wells of 96-well microtiter plates. After incubation at 37°C for 2 (L1210), 3 (CEM), or 4 (HeLa) days, the cell number was determined using a Coulter counter. The IC50 was defined per cell type as the compound concentration required to inhibit cell proliferation by 50% compared to the negative control ([Glowacka et al., 2017]).
# MRSA KS2 = assay: MIC, broth microdilution, MRSA KS2; format: cell-based, Staphylococcus aureus; conditions: for MIC-fold improvement vs. vancomycin: MRSA KS2, ratio of MIC of vancomycin and MIC of analogue; for MIC: Staphylococcus aureus MRSA KS2, read-out: MIC
# Procedure: as §1
# [3] = test system: Murine leukemia (L1210) cells; assay: Cytostatic activity, L1210 cell proliferation; format: cell-based; conditions: mean ± SD of three experiments; highest concentration tested 250 µM; 2 days; read-out: Toxicity (IC50) L1210
# Procedure: as §2
# [4] = test system: human T-lymphocyte (CEM) cells; assay: Cytostatic activity, CEM cell proliferation; format: cell-based; conditions: mean ± SD of three experiments; highest concentration tested 250 µM; 3 days; read-out: Toxicity (IC50) CEM
# Procedure: as §2
# [5] = test system: L1210, CEM and HeLa cell lines; assay: Cytostatic activity, average or summary over L1210, CEM and HeLa; format: cell-based; conditions: average of L1210, CEM and HeLa; read-out: Toxicity (IC50) Average
# Procedure: as §2
# MRSA KS1 = assay: MIC, broth microdilution, MRSA KS1; format: cell-based, Staphylococcus aureus; conditions: for MIC-fold improvement vs. vancomycin: MRSA KS1, ratio of MIC of vancomycin and MIC of analogue; for MIC: Staphylococcus aureus MRSA KS1, read-out: MIC
# Procedure: as §1
# S. aureus VISA/HIP5827 = assay: MIC, broth microdilution, vancomycin-intermediate S. aureus VISA HIP5827; format: cell-based, Staphylococcus aureus; conditions: for MIC: Staphylococcus aureus VISA/HIP5827, read-out: MIC; for MIC-fold improvement vs. vancomycin: VISA/HIP5827, ratio of MIC of vancomycin and MIC of analogue
# Procedure: as §1
SMILES,MIC (E. faecalis VRE 6) [µM],MIC-fold improvement vs. vancomycin (E. faecalis VRE 6),MIC-fold improvement vs. vancomycin (MRSA KS6),MIC (MRSA KS6) [µM],MIC (S. aureus VRSA) [µM],MIC-fold improvement vs. vancomycin (S. aureus VRSA),MIC (E. faecalis VRE 53) [µM],MIC-fold improvement vs. vancomycin (E. faecalis VRE 53),MIC (E. faecalis VSE 1) [µM],MIC-fold improvement vs. vancomycin (E. faecalis VSE 1),MIC-fold improvement vs. vancomycin (MRSA KS89),MIC (MRSA KS89) [µM],MIC (E. faecalis VRE 29) [µM],MIC-fold improvement vs. vancomycin (E. faecalis VRE 29),MIC [1] [µM],MIC-fold improvement vs. vancomycin [1],MIC (E. faecalis VRE 37) [µM],IC50 [2] [µM],MIC-fold improvement vs. vancomycin (MRSA KS2),MIC (MRSA KS2) [µM],other results
CNC(CC(C)C)C(=O)NC1C(=O)NC(CC(N)=O)C(=O)NC2C(=O)NC3C(=O)NC(C(=O)NC(C(=O)NCC(=O)Nc4ccc(C#CC5CCCC5)cc4)c4cc(O)cc(O)c4-c4cc3ccc4O)C(O)c3ccc(c(Cl)c3)Oc3cc2cc(c3OC2OC(CO)C(O)C(O)C2OC2CC(C)(N)C(O)C(C)O2)Oc2ccc(cc2Cl)C1O (stereo not shown) [Vanc-69],3.13,64,4,0.20,1.56,64,6.25,64,0.78,2,4,0.20,6.25,64,0.78,1,6.25,55 ± 37,4,0.20,"MIC-fold improvement vs. vancomycin (E. faecalis VRE 37; VRE 37, ratio of MIC of vancomycin and MIC of analogue): 64; IC50 [3]: 185 ± 93 µM; IC50 [4]: 29 µM; IC50 [5]: 90 µM; MIC-fold improvement vs. vancomycin (MRSA KS1): 1; MIC (MRSA KS1): 0.78 µM; MIC (S. aureus VISA/HIP5827): 0.78 µM; MIC-fold improvement vs. vancomycin (S. aureus VISA/HIP5827): 8"
CNC(CC(C)C)C(=O)NC1C(=O)NC(CC(N)=O)C(=O)NC2C(=O)NC3C(=O)NC(C(=O)NC(C(=O)NCCCNC(=O)c4cc5cc(F)ccc5[nH]4)c4cc(O)cc(O)c4-c4cc3ccc4O)C(O)c3ccc(c(Cl)c3)Oc3cc2cc(c3OC2OC(CO)C(O)C(O)C2OC2CC(C)(N)C(O)C(C)O2)Oc2ccc(cc2Cl)C1O (stereo not shown) [Vanc-45],3.13,64,0.25,3.13,1.56,64,25,16,0.39,4,2,0.39,12.5,32,0.39,2,12.5,> 250,2,0.39,IC50 [3]: > 250 µM; IC50 [4]: > 250 µM; IC50 [5]: > 250 µM; MIC-fold improvement vs. vancomycin (MRSA KS1): 2; MIC (MRSA KS1): 0.39 µM; MIC (S. aureus VISA/HIP5827): 1.56 µM; MIC-fold improvement vs. vancomycin (S. aureus VISA/HIP5827): 4
CNC(CC(C)C)C(=O)NC1C(=O)NC(CC(N)=O)C(=O)NC2C(=O)NC3C(=O)NC(C(=O)NC(C(=O)NCCCNC(=O)c4ccc5cc(NS(=O)(=O)c6ccccc6)ccc5c4)c4cc(O)cc(O)c4-c4cc3ccc4O)C(O)c3ccc(c(Cl)c3)Oc3cc2cc(c3OC2OC(CO)C(O)C(O)C2OC2CC(C)(N)C(O)C(C)O2)Oc2ccc(cc2Cl)C1O (stereo not shown) [Vanc-63],3.13,64,2,0.39,0.78,128,25,16,0.39,4,2,0.39,6.25,64,0.39,2,12.5,69 ± 74,2,0.39,IC50 [3]: > 250 µM; IC50 [4]: ≥ 250 µM; IC50 [5]: 190 µM; MIC-fold improvement vs. vancomycin (MRSA KS1): 2; MIC (MRSA KS1): 0.39 µM; MIC (S. aureus VISA/HIP5827): 0.78 µM; MIC-fold improvement vs. vancomycin (S. aureus VISA/HIP5827): 8
